Measured values as given in ChEMBL document CHEMBL1201862, “PubChem BioAssay data set” (2004).
Several values for one entry are separate records, joined by “and”; a condition that tells them apart may be missing. Equal values may be shown once.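 48-hour exposure; five concentrations; linearly interpolated endpoints. Here, GI50 denotes the concentration required for 50% inhibition of growth.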 Activity calls are given as the source filed them. Rule as the data show it: active = GI50 up to about 1.1 µM and inactive = higher. Where a SMILES comes first, the peptide text is derived from it. The star is where a group is joined. Cbz = O=C(OCc1ccccc1)*

Columns and labels:
Assay in all cases: NCI tumour cell line growth inhibition, 48 h
A549 = tested on: A549
ACHN = tested on: ACHN
CCRF-CEM = tested on: CCRF-CEM
COLO 205 = tested on: COLO 205
EKVX = tested on: EKVX
HCT-15 = tested on: HCT-15
HT-29 = tested on: HT-29
IGROV-1 = tested on: IGROV-1
MDA-N = tested on: MDA-N
MOLT-4 = tested on: MOLT-4
Malme-3M = tested on: Malme-3M
NCI-H460 = tested on: NCI-H460
OVCAR-5 = tested on: OVCAR-5
RPMI-8226 = tested on: RPMI-8226
RXF 393 = tested on: RXF 393
SK-MEL-5 = tested on: SK-MEL-5
UACC-257 = tested on: UACC-257
UO-31 = tested on: UO-31
HOP-92 = tested on: HOP-92
SR = tested on: SR

Compound | GI50 (A549) | GI50 (ACHN) | GI50 (CCRF-CEM) | GI50 (COLO 205) | GI50 (EKVX) | GI50 (HCT-15) | GI50 (HT-29) | GI50 (IGROV-1) | GI50 (MDA-N) | GI50 (MOLT-4) | GI50 (Malme-3M) | GI50 (NCI-H460) | GI50 (OVCAR-5) | GI50 (RPMI-8226) | GI50 (RXF 393) | GI50 (SK-MEL-5) | GI50 (UACC-257) | GI50 (UO-31) | GI50 (HOP-92) | GI50 (SR)
COc1ccc(-c2nc(O)c3ccccc3n2)c(OC)c1 | > 100 µM (inactive) | > 100 µM (inactive) | > 100 µM (inactive) | > 100 µM (inactive) | > 100 µM (inactive) | > 100 µM | > 100 µM (inactive) | > 100 µM (inactive) | > 100 µM (inactive) | > 100 µM (inactive) | > 100 µM (inactive) | > 100 µM (inactive) | > 100 µM (inactive) | 29.1 µM (inactive) | > 100 µM (inactive) | > 100 µM (inactive) | > 100 µM (inactive) | > 100 µM (inactive) | – | –
N#C[C@H](C(=O)c1ccccc1F)c1nc2ccccc2s1 | 29 µM (inactive) | 49.1 µM (inactive) | 23.4 µM (inactive) | 23.7 µM (inactive) | 28 µM (inactive) | 54.5 µM | 28.1 µM (inactive) | 17.8 µM (inactive) | 38.3 µM (inactive) | 26.5 µM (inactive) | 10.4 µM (inactive) | 28.9 µM (inactive) | 31 µM (inactive) | 22.5 µM (inactive) | 27.7 µM (inactive) | 26.9 µM (inactive) | 66.1 µM (inactive) | 46.8 µM (inactive) | 48.1 µM (inactive) | –
O=C1Nc2ccc(Br)cc2/C1=N/Nc1ccccc1[N+](=O)[O-] | 9.29 µM (inactive) | 3.83 µM (inactive) | 12.5 µM (inactive) | 12.1 µM (inactive) | 6.31 µM (inactive) | 20.5 µM | 13.8 µM (inactive) | 0.261 µM (active) | 17 µM (inactive) | 42.9 µM (inactive) | 13.6 µM (inactive) | 9.73 µM (inactive) | 12.7 µM (inactive) | 16.4 µM (inactive) | 32.7 µM (inactive) | 8.63 µM (inactive) | 13.3 µM (inactive) | 16.9 µM (inactive) | – | 10.2 µM (inactive)
O=C1/C(=C/c2ccc(O)c(CN3CCCCC3)c2)CCC/C1=C\c1ccc(O)c(CN2CCCCC2)c1 | 16.7 µM (inactive) | 6.31 µM (inactive) | 3.32 µM (inactive) | 2.55 µM (inactive) | 8.85 µM (inactive) | 5.37 µM | 1.51 µM (inactive) | 5.75 µM (inactive) | 4.66 µM (inactive) | 4 µM (inactive) | 13.6 µM (inactive) | 3.05 µM (inactive) | 29.6 µM (inactive) | 6.85 µM (inactive) | 3.24 µM (inactive) | 14 µM (inactive) | 10.6 µM (inactive) | 10.4 µM (inactive) | 4.26 µM (inactive) | –
CC12CC3OC(=O)C1COC14OC5(C2C1=O)C(O)(CCC1C4CC(O)C2(O)CC=CC(=O)C12C)C(=O)OC35C (configuration not stated) | > 100 µM (inactive) | > 100 µM (inactive) | > 100 µM (inactive) | > 100 µM (inactive) | > 100 µM (inactive) | > 100 µM | > 100 µM (inactive) | > 100 µM (inactive) | 83.4 µM (inactive) | > 100 µM (inactive) | > 100 µM (inactive) | > 100 µM (inactive) | > 100 µM (inactive) | > 100 µM (inactive) | – | > 100 µM (inactive) | > 100 µM (inactive) | > 100 µM (inactive) | > 100 µM (inactive) | –
COc1nc2sc3c(c2c(=O)n1CCCSSCCCn1c(OC)nc2sc4c(c2c1=O)CCCC4)CCCC3 | > 100 µM (inactive) | > 100 µM (inactive) | > 100 µM (inactive) | > 100 µM (inactive) | > 100 µM (inactive) | > 100 µM | > 100 µM (inactive) | > 100 µM (inactive) | > 100 µM (inactive) | > 100 µM (inactive) | > 100 µM (inactive) | – | > 100 µM (inactive) | 6.92 µM (inactive) | > 100 µM (inactive) | > 100 µM (inactive) | > 100 µM (inactive) | > 100 µM (inactive) | > 100 µM (inactive) | –
O=P1(O)c2ccccc2CCc2ccccc21 | > 100 µM (inactive) | – | > 100 µM (inactive) | > 100 µM (inactive) | > 100 µM (inactive) | > 100 µM | – | > 100 µM (inactive) | > 100 µM (inactive) | > 100 µM (inactive) | – | – | – | > 100 µM (inactive) | > 100 µM (inactive) | > 100 µM (inactive) | > 100 µM (inactive) | > 100 µM (inactive) | > 100 µM (inactive) | –
C=C(C)C1CC[C@@](C)(O)[C@H](C#N)C1 (some centres not stated) | > 100 µM (inactive) | > 100 µM (inactive) | > 100 µM (inactive) | > 100 µM (inactive) | > 100 µM (inactive) | > 100 µM | > 100 µM (inactive) | – | > 100 µM (inactive) | > 100 µM (inactive) | > 100 µM (inactive) | > 100 µM (inactive) | > 100 µM (inactive) | > 100 µM (inactive) | > 100 µM (inactive) | > 100 µM (inactive) | > 100 µM (inactive) | > 100 µM (inactive) | – | > 100 µM (inactive)
COc1ccc(/N=C2\C(=N/c3ccc(OC)cc3)N(c3ccc(N(C)C)cc3)C(=S)N2c2ccc(OC)cc2)cc1 | > 100 µM (inactive) | > 100 µM (inactive) | > 100 µM (inactive) | > 100 µM (inactive) | > 100 µM (inactive) | > 100 µM | > 100 µM (inactive) | > 100 µM (inactive) | > 100 µM (inactive) | 0.0329 µM (active) | > 100 µM (inactive) | 10.9 µM (inactive) | > 100 µM (inactive) | 0.0532 µM (active) | 0.0378 µM (active) | > 100 µM (inactive) | > 38 µM (inactive) | 3.81 µM (inactive) | > 100 µM (inactive) | –
COc1ccc(OC)c(/C=C/[N+](=O)[O-])c1 | 3.24 µM (inactive) and 5.79 µM (inactive) | 1.82 µM (inactive) and 2.21 µM (inactive) | 1.01 µM (active) and 1.58 µM (inactive) | 2.04 µM (inactive) and 3.15 µM (inactive) | – | 3.37 µM and 2.75 µM | 3.47 µM (inactive) and 2.49 µM (inactive) | – | 3.16 µM (inactive) | – | – | 3.24 µM (inactive) and 5.48 µM (inactive) | – | 1.39 µM (inactive) and 845 nM (active) | 1.12 µM (inactive) and 2.05 µM (inactive) | 3.29 µM (inactive) and 2.33 µM (inactive) | 4.1 µM (inactive) and 3.92 µM (inactive) | 1.74 µM (inactive) and 2.77 µM (inactive) | 4.35 µM (inactive) and 3.05 µM (inactive) | –
Brc1cccc(Nc2ncnc3sc4c(c23)CCC2(C4)OCCO2)c1 | 80 µM (inactive) | 4.68 µM (inactive) | – | 18 µM (inactive) | 19.3 µM (inactive) | 25.4 µM | 45.4 µM (inactive) | 8.73 µM (inactive) | 33.6 µM (inactive) | – | 39.2 µM (inactive) | 33.3 µM (inactive) | > 100 µM (inactive) | – | – | 15.8 µM (inactive) | 26.7 µM (inactive) | 2.07 µM (inactive) | 10.7 µM (inactive) | –
C=C1CC2[C@H](C)C(=O)CCC2(C)C2=C1C1CCC(C(C)CCC(=C)C(C)C(=O)O)C1(C)CC2=O (some centres not stated) | 66.7 µM (inactive) | 31.9 µM (inactive) | 11.8 µM (inactive) | 49.4 µM (inactive) | 71.8 µM (inactive) | 40.5 µM | 62.1 µM (inactive) | 56.9 µM (inactive) | 95.3 µM (inactive) | 16.8 µM (inactive) | > 100 µM (inactive) | 34.4 µM (inactive) | > 100 µM (inactive) | – | 30.1 µM (inactive) | 31.3 µM (inactive) | 29.2 µM (inactive) | 30.9 µM (inactive) | 29.7 µM (inactive) | –
CC[C@]12C=CCN3CC[C@@]4(c5cc(Br)c(OC)cc5N(C)[C@H]4[C@@](O)(C(=O)NN)[C@@H]1O)[C@@H]32 | > 100 µM (inactive) | 79.3 µM (inactive) | 38 µM (inactive) | > 100 µM (inactive) | 59.4 µM (inactive) | > 100 µM | > 100 µM (inactive) | 87.1 µM (inactive) | 48.1 µM (inactive) | 26.7 µM (inactive) | 69.8 µM (inactive) | > 100 µM (inactive) | > 100 µM (inactive) | – | 22.5 µM (inactive) | 49.5 µM (inactive) | 55 µM (inactive) | > 100 µM (inactive) | > 100 µM (inactive) | –
C[C@]12CC[C@H]3[C@@H](CC=C4C[C@@H](O)CC[C@@]43C)[C@@H]1C[C@H](N1CCOCC1)[C@@H]2O | > 100 µM (inactive) | > 100 µM (inactive) | > 100 µM (inactive) | > 100 µM (inactive) | > 100 µM (inactive) | > 100 µM | 6.34 µM (inactive) | > 100 µM (inactive) | > 100 µM (inactive) | > 100 µM (inactive) | > 100 µM (inactive) | > 100 µM (inactive) | > 100 µM (inactive) | > 100 µM (inactive) | 52.4 µM (inactive) | 77.3 µM (inactive) | > 100 µM (inactive) | > 100 µM (inactive) | > 100 µM (inactive) | –
CCOC(=O)CCC(NC(=O)C(CC(=O)OC)NC(=O)OCc1ccccc1)C(=O)NC(CC(=O)OC)C(=O)NC(CCC(=O)OCC)C(=O)NC(CC(=O)OC)C(=O)NC(CCC(=O)OCC)C(=O)NC(CC(=O)OCC)C(=O)OCC (configuration not stated) (Cbz-D(OMe)E(OEt)D(OMe)E(OEt)D(OMe)E(OEt)D(OEt)-OEt; configuration not given here) | > 100 µM (inactive) | > 100 µM (inactive) | > 100 µM (inactive) | – | – | > 100 µM | > 100 µM (inactive) | > 100 µM (inactive) | > 100 µM (inactive) | > 100 µM (inactive) | > 100 µM (inactive) | > 100 µM (inactive) | > 100 µM (inactive) | > 100 µM (inactive) | – | > 100 µM (inactive) | > 100 µM (inactive) | > 100 µM (inactive) | – | > 100 µM (inactive)
